Starred links: 1 amine or outer side, 2 acyl side, 3 side chain; linkers in the order of their positions; H or OH if unused. Non-standard residues stand in square brackets, D forms with d. Residues, ends and D or L forms follow the SMILES beside them. Groups on a side chain read outwards from the residue. *: point of attachment. C18 diacid = O=C(O)CCCCCCCCCCCCCCCCC(=O)*; γGlu = O=C(O)[C@H](CCC(=O)[*:2])N[*:1]; αMeF = C[C@](N)(Cc1ccccc1)C(=O)O; PEG4 = NCCOCCOCCOCCOCCC(=O)O; AEEA = NCCOCCOCC(=O)O; Aib = CC(C)(N)C(=O)O
Tests used:
[1] = target: human GLP-1 receptor (hGLP-1R) (Homo sapiens, UniProt P43220); assay: cAMP production (HTRF) in CHO cells expressing hGLP-1R; assay type: cell-based; parameters: expressed in transfected cells; conditions: for EC50: Table 6, peptides modified at position 17, cAMP in CHO hGLP-1R cells, geometric mean, read-out: hGLP-1R EC50; for % Relative Potency Ratio: Table 6, % GLP-1R activity relative to GLP-1 / % GlucR activity relative to glucagon
Outline: (§1)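 Cells were resuspended in assay buffer at batch-optimized density, typically 1×10^5 cells/mL for hGLP-1R and 2×10^5 cells/mL for hGCGR. After 30 min incubation at room temperature with compound, cAMP was measured by two-step HTRF. EC50 values came from 4-parameter logistic fits of % Delta F.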

[2] = target: human glucagon receptor (hGCGR) (Homo sapiens, UniProt P47871); assay: cAMP production (HTRF) in CHO cells expressing hGCGR; assay type: cell-based; parameters: expressed in transfected cells; conditions: Table 6, peptides modified at position 17; cAMP in CHO hGCGR cells; geometric mean; read-out: hGluc-R EC50
Outline: as §1

Sequence of human glucagon receptor (hGCGR) (P47871 26-477): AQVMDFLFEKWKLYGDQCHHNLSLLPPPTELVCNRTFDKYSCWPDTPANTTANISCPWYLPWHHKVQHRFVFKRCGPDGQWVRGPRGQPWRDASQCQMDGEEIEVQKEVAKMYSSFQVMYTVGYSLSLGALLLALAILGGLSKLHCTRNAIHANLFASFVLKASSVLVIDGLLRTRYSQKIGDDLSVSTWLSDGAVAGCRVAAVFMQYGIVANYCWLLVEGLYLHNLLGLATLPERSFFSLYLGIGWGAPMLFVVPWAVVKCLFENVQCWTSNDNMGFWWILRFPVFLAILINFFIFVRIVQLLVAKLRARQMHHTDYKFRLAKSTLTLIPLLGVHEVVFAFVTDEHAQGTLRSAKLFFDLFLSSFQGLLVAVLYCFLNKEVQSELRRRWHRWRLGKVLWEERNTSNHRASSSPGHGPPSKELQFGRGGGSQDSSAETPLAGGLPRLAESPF
Sequence of human GLP-1 receptor (hGLP-1R) (P43220 24-463): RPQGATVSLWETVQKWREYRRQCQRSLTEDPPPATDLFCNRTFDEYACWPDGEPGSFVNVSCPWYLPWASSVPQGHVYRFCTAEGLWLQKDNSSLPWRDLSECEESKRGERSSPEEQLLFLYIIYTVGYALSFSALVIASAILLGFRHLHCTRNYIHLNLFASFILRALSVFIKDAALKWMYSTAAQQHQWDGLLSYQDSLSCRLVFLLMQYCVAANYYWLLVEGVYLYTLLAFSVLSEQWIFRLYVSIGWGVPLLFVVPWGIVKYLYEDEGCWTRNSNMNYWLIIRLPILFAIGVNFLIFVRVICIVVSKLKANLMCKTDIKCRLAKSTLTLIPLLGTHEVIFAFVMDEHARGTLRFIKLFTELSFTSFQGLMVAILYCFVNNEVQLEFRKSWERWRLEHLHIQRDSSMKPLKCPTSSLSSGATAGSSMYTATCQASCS

| EC50 [1] [nM] | % Relative Potency Ratio [1] | EC50 [2] [nM] | SMILES |
| --- | --- | --- | --- |
| 0.0837 | 7.9 | 0.335 | CC(C)C[C@H](NC(=O)[C@H](Cc1c[nH]c2ccccc12)NC(=O)[C@H](CCC(N)=O)NC(=O)[C@@H](NC(=O)[C@H](Cc1ccccc1)NC(=O)[C@H](CC(=O)O)NC(=O)[C@H](CCC(N)=O)NC(=O)[C@H](C)NC(=O)[C@H](CCCNC(=N)N)NC(=O)[C@H](CCCCNC(=O)COCCOCCNC(=O)COCCOCCNC(=O)CC[C@H](NC(=O)CCCCCCCCCCCCCCCCC(=O)O)C(=O)O)NC(=O)[C@@H](NC(=O)[C@H](CC(=O)O)NC(=O)[C@H](CC(C)C)NC(=O)[C@](C)(Cc1ccccc1)NC(=O)[C@H](CCCCN)NC(=O)[C@H](CO)NC(=O)[C@@H](NC(=O)[C@H](CC(=O)O)NC(=O)[C@H](CO)NC(=O)[C@@H](NC(=O)[C@H](Cc1ccccc1)NC(=O)[C@@H](NC(=O)CNC(=O)[C@H](CCC(N)=O)NC(=O)C(C)(C)NC(=O)[C@@H](N)Cc1c[nH]cn1)[C@@H](C)O)[C@@H](C)O)C(C)C)[C@@H](C)O)C(C)C)C(=O)N[C@@H](CC(C)C)C(=O)NC(C)(C)C(=O)N[C@H](C(=O)O)[C@@H](C)O [Peptide 35] (H-H[Aib]QGTFTSDVSK[αMeF]LDTK([AEEA-AEEA-γGlu-C18 diacid])RAQDFVQWLL[Aib]T-OH; N-terminus assumed) |
| 0.0431 | 12.8 | 0.278 | CC(C)C[C@H](NC(=O)[C@H](Cc1c[nH]c2ccccc12)NC(=O)[C@H](CCC(N)=O)NC(=O)[C@@H](NC(=O)[C@H](Cc1ccccc1)NC(=O)[C@H](CC(=O)O)NC(=O)[C@H](CCCNC(=N)N)NC(=O)[C@H](C)NC(=O)[C@H](CCCNC(=N)N)NC(=O)[C@H](CCCCNC(=O)COCCOCCNC(=O)COCCOCCNC(=O)CC[C@H](NC(=O)CCCCCCCCCCCCCCCCC(=O)O)C(=O)O)NC(=O)[C@H](CO)NC(=O)[C@H](CC(=O)O)NC(=O)[C@H](CC(C)C)NC(=O)[C@](C)(Cc1ccccc1)NC(=O)[C@H](CCCCN)NC(=O)[C@H](CO)NC(=O)[C@@H](NC(=O)[C@H](CC(=O)O)NC(=O)[C@H](CO)NC(=O)[C@@H](NC(=O)[C@H](Cc1ccccc1)NC(=O)[C@@H](NC(=O)CNC(=O)[C@H](CCC(N)=O)NC(=O)C(C)(C)NC(=O)[C@@H](N)Cc1c[nH]cn1)[C@@H](C)O)[C@@H](C)O)C(C)C)C(C)C)C(=O)N[C@@H](CC(C)C)C(=O)NC(C)(C)C(=O)N[C@H](C(=O)O)[C@@H](C)O [Peptide 36] (H-H[Aib]QGTFTSDVSK[αMeF]LDSK([AEEA-AEEA-γGlu-C18 diacid])RARDFVQWLL[Aib]T-OH; N-terminus assumed) |
| 0.0686 | 79.2 | 2.75 | CC(C)C[C@H](NC(=O)[C@H](Cc1c[nH]c2ccccc12)NC(=O)[C@H](CCC(N)=O)NC(=O)[C@@H](NC(=O)[C@H](Cc1ccccc1)NC(=O)[C@H](CC(=O)O)NC(=O)[C@H](CCC(=O)O)NC(=O)[C@H](C)NC(=O)[C@H](CCCNC(=N)N)NC(=O)[C@H](CCCCNC(=O)COCCOCCNC(=O)COCCOCCNC(=O)CC[C@H](NC(=O)CCCCCCCCCCCCCCCCC(=O)O)C(=O)O)NC(=O)[C@H](CO)NC(=O)[C@H](CC(=O)O)NC(=O)[C@H](CC(C)C)NC(=O)[C@](C)(Cc1ccccc1)NC(=O)[C@H](CCCCN)NC(=O)[C@H](CO)NC(=O)[C@@H](NC(=O)[C@H](CC(=O)O)NC(=O)[C@H](CO)NC(=O)[C@@H](NC(=O)[C@H](Cc1ccccc1)NC(=O)[C@@H](NC(=O)CNC(=O)[C@H](CCC(N)=O)NC(=O)C(C)(C)NC(=O)[C@@H](N)Cc1c[nH]cn1)[C@@H](C)O)[C@@H](C)O)C(C)C)C(C)C)C(=O)N[C@@H](CC(C)C)C(=O)NC(C)(C)C(=O)N[C@H](C(=O)O)[C@@H](C)O [Peptide 37] (H-H[Aib]QGTFTSDVSK[αMeF]LDSK([AEEA-AEEA-γGlu-C18 diacid])RAEDFVQWLL[Aib]T-OH) |
| 0.0756 | 11.6 | 0.441 | CC(C)C[C@H](NC(=O)[C@H](Cc1c[nH]c2ccccc12)NC(=O)[C@H](CCC(=O)O)NC(=O)[C@@H](NC(=O)[C@H](Cc1ccccc1)NC(=O)[C@H](CC(=O)O)NC(=O)[C@H](CCC(N)=O)NC(=O)[C@H](C)NC(=O)[C@H](CCCNC(=N)N)NC(=O)[C@H](CCCCNC(=O)COCCOCCNC(=O)COCCOCCNC(=O)CC[C@H](NC(=O)CCCCCCCCCCCCCCCCC(=O)O)C(=O)O)NC(=O)[C@H](CO)NC(=O)[C@H](CC(=O)O)NC(=O)[C@H](CC(C)C)NC(=O)[C@](C)(Cc1ccccc1)NC(=O)[C@H](CCCCN)NC(=O)[C@H](CO)NC(=O)[C@@H](NC(=O)[C@H](CC(=O)O)NC(=O)[C@H](CO)NC(=O)[C@@H](NC(=O)[C@H](Cc1ccccc1)NC(=O)[C@@H](NC(=O)CNC(=O)[C@H](CCC(N)=O)NC(=O)C(C)(C)NC(=O)[C@@H](N)Cc1c[nH]cn1)[C@@H](C)O)[C@@H](C)O)C(C)C)C(C)C)C(=O)N[C@@H](CC(C)C)C(=O)NC(C)(C)C(=O)N[C@H](C(=O)O)[C@@H](C)O [Peptide 38] (H-H[Aib]QGTFTSDVSK[αMeF]LDSK([AEEA-AEEA-γGlu-C18 diacid])RAQDFVEWLL[Aib]T-OH; N-terminus assumed) |
| 0.0761 | 5.0 | 0.194 | CC(C)C[C@H](NC(=O)[C@H](Cc1c[nH]c2ccccc12)NC(=O)[C@H](CCCNC(=N)N)NC(=O)[C@@H](NC(=O)[C@H](Cc1ccccc1)NC(=O)[C@H](CC(=O)O)NC(=O)[C@H](CCC(N)=O)NC(=O)[C@H](C)NC(=O)[C@H](CCCNC(=N)N)NC(=O)[C@H](CCCCNC(=O)COCCOCCNC(=O)COCCOCCNC(=O)CC[C@H](NC(=O)CCCCCCCCCCCCCCCCC(=O)O)C(=O)O)NC(=O)[C@H](CO)NC(=O)[C@H](CC(=O)O)NC(=O)[C@H](CC(C)C)NC(=O)[C@](C)(Cc1ccccc1)NC(=O)[C@H](CCCCN)NC(=O)[C@H](CO)NC(=O)[C@@H](NC(=O)[C@H](CC(=O)O)NC(=O)[C@H](CO)NC(=O)[C@@H](NC(=O)[C@H](Cc1ccccc1)NC(=O)[C@@H](NC(=O)CNC(=O)[C@H](CCC(N)=O)NC(=O)C(C)(C)NC(=O)[C@@H](N)Cc1c[nH]cn1)[C@@H](C)O)[C@@H](C)O)C(C)C)C(C)C)C(=O)N[C@@H](CC(C)C)C(=O)NC(C)(C)C(=O)N[C@H](C(=O)N[C@@H](CCC(=O)O)C(=O)O)[C@@H](C)O [Peptide 39] (H-H[Aib]QGTFTSDVSK[αMeF]LDSK([AEEA-AEEA-γGlu-C18 diacid])RAQDFVRWLL[Aib]TE-OH; N-terminus assumed) |
| 0.0299 | 8.2 | 0.123 | CC(C)C[C@H](NC(=O)[C@H](Cc1c[nH]c2ccccc12)NC(=O)[C@H](CCC(N)=O)NC(=O)[C@@H](NC(=O)[C@H](Cc1ccccc1)NC(=O)[C@H](CC(=O)O)NC(=O)[C@H](CCC(N)=O)NC(=O)[C@H](C)NC(=O)[C@H](CCCNC(=N)N)NC(=O)[C@H](CCCCNC(=O)COCCOCCNC(=O)COCCOCCNC(=O)CC[C@H](NC(=O)CCCCCCCCCCCCCCCCC(=O)O)C(=O)O)NC(=O)[C@H](CO)NC(=O)[C@H](CC(=O)O)NC(=O)[C@H](CC(C)C)NC(=O)[C@](C)(Cc1ccccc1)NC(=O)[C@H](CCCCN)NC(=O)[C@H](CO)NC(=O)[C@@H](NC(=O)[C@H](CC(=O)O)NC(=O)[C@H](CO)NC(=O)[C@@H](NC(=O)[C@H](Cc1ccccc1)NC(=O)[C@@H](NC(=O)CNC(=O)[C@H](CCC(N)=O)NC(=O)C(C)(C)NC(=O)[C@@H](N)Cc1c[nH]cn1)[C@@H](C)O)[C@@H](C)O)C(C)C)C(C)C)C(=O)N[C@@H](CC(C)C)C(=O)NC(C)(C)C(=O)N[C@H](C(=O)O)[C@@H](C)O [Peptide 40] (H-H[Aib]QGTFTSDVSK[αMeF]LDSK([AEEA-AEEA-γGlu-C18 diacid])RAQDFVQWLL[Aib]T-OH; N-terminus assumed) |
| 0.663 | 17.1 | 5.74 | CC(C)C[C@H](NC(=O)[C@H](Cc1c[nH]c2ccccc12)NC(=O)[C@H](CCC(N)=O)NC(=O)[C@@H](NC(=O)[C@H](Cc1ccccc1)NC(=O)[C@H](CC(=O)O)NC(=O)[C@H](CCC(N)=O)NC(=O)[C@H](C)NC(=O)[C@H](CCCNC(=N)N)NC(=O)[C@H](CCCCNC(=O)COCCOCCNC(=O)COCCOCCNC(=O)CC[C@H](NC(=O)CCCCCCCCCCCCCCCCC(=O)O)C(=O)O)NC(=O)[C@H](CO)NC(=O)[C@H](CC(=O)O)NC(=O)[C@H](CC(C)C)NC(=O)[C@](C)(Cc1ccccc1)NC(=O)[C@H](CCCCN)NC(=O)[C@H](CO)NC(=O)[C@H](Cc1ccc(O)cc1)NC(=O)[C@H](CC(=O)O)NC(=O)[C@H](CO)NC(=O)[C@@H](NC(=O)[C@H](Cc1ccccc1)NC(=O)[C@@H](NC(=O)CNC(=O)[C@H](CCC(N)=O)NC(=O)C(C)(C)NC(=O)[C@@H](N)Cc1c[nH]cn1)[C@@H](C)O)[C@@H](C)O)C(C)C)C(=O)N[C@H](C(=O)NCCOCCOCCOCCOCCC(N)=O)C(C)C [Peptide 41] (H-H[Aib]QGTFTSDYSK[αMeF]LDSK([AEEA-AEEA-γGlu-C18 diacid])RAQDFVQWLV[PEG4]-NH2; N-terminus assumed) |
